Source: ChEMBL document CHEMBL1156407, “The antiplasmodial activity of isolates from Ajuga remota” (J Nat Prod, 2002)
Calls of active or inactive are those of the source. The calls are words filed in the database; no cut-off is given here.

Assays:
[1] = Cytotoxicity against human A431 cells by MTT assay; assay type: cell-based, A-431; settings: read-out: ED50 (the source's name)
[2] = Selectivity index, ratio of ED50 for human A431 cells to IC50 for chloroquine-sensitive Plasmodium falciparum FCA10/GHA; assay type: functional, A-431
[3] = tested on: Plasmodium falciparum; assay: Antiplasmodial activity after 72 hrs against chloroquine-sensitive Plasmodium falciparum FCA10/GHA as LDH activity; assay type: functional, organism-based
[4] = tested on: Plasmodium falciparum; assay: Antiplasmodial activity after 72 hrs against chloroquine-sensitive Plasmodium falciparum FCA10/GHA at 500 uM by LDH activity; assay type: functional, organism-based

For `CC(=O)OC[C@@]12[C@@H](OC(C)=O)C[C@@H](C)[C@](C)(CCC3=CC(=O)OC3)[C@H]1CCC[C@]21CO1` [AJUGARIN I], the CC50 [1] was greater than 88 µM, the Ratio [2] was greater than 4 and the IC50 [3] was 23 µM.
For `O=c1[nH]cc(F)c(=O)[nH]1` [FLUOROURACIL], the CC50 [1] was 44 µM.
With `CC(C)C/C=C/C[C@H]1CC[C@@H]2[C@]1(C)CCC1[C@]23C=C[C@]2(C[C@@H](O)CC[C@]12C)OO3` (some centres undefined) the CC50 [1] was greater than 23 µM, the Ratio [2] was greater than 3 and the IC50 [3] was 8.2 µM.
In the case of `CC(=O)O[C@@]1(C)C[C@@H](O)[C@]2(O)C=CO[C@@H](O[C@@H]3O[C@H](CO)[C@@H](O)[C@H](O)[C@H]3O)[C@@H]21`, the CC50 [1] is reported as 310 µM and the Activity [4] is reported as “inactive”.
